Key:
[1] = test system: Fibrillin2 gene expression in pancreatic cancer cell line PANC-1; assay: Effect of methylation inhibitor on expression of Fibrillin2 gene (Real Time PCR of mRNA-derived DNA) in PANC-1; assay type: cell-based, human; details: added on first and third day after seeding, cells recovered on fourth day
Description: (§1) seven kinds of human-derived pancreatic cancer cell lines (BXPc3, HPAF-II, Capan-2, MiaPaCa-2, Hs766T, PANC-1 and HPAC) and immortal (normal) pancreatic ductal epithelial cells lines (HPDE-4/E6E7 and HPDE6-E6E7c7) were cultured to 70% confluent in an exclusively used medium, and thereafter, each cell was corrected. 1 ml of an ISOGEN solution (Nippon Gene) was mixed with collected each cell (wet weight about 100 mg), this was homogenized, and 0.2 ml of chloroform was added thereto to suspend them. After suspending, the mixture was centrifuged (4° C., 15000×g, 15 minutes) to recover the supernatant. […]
(§2) A reaction solution of PCR was used which was obtained by mixing 50 ng of a cDNA as a template, each 1 μl of two kinds of 10 pmol/μl aforementioned primer solution, 4 μl of 2.5 mM dNTP, 4 μl of 5 mM dUTP, 5 μl of 10×SYBR Green PCR Buffer, 6 μl of 25 mM MgCl2 and 0.3 μl of a 5U/μl thermos table DNA polymerase (AmpliTaq Gold), 0.5 μl of AmpEraseUNG and adding sterilized ultrapure water thereto to an amount of solution of 50 μl. […] When a DNA derived from mRNA of Fibrillin2 gene and GAPDH gene was amplified, after the reaction solution was retained at 95° C. for 10 minutes, Real Time PCR was performed at the conditions under which each cycle was 30 seconds at 95° C., 30 seconds at 59° C. and 30 seconds at 72° C. to quantitate Fibrillin2 gene and GAPDH gene.

[2] = test system: Fibrillin2 gene expression in pancreatic cancer cell line HPAC; assay: Effect of methylation inhibitor on expression of Fibrillin2 gene (Real Time PCR of mRNA-derived DNA) in HPAC; assay type: cell-based, human; details: added on first and third day after seeding, cells recovered on fourth day
Description: as §1, §2

Measured: DNA derived from a mRNA of Fibrillin2 gene (expression of Fibrillin2 gene)

Nc1ncn([C@H]2C[C@H](O)[C@@H](CO)O2)c(=O)n1 [5Aza-dC, 5-aza-2′-deoxytidine]
detected: [1]; PANC-1 cultured in the presence of 0.5 μM 5Aza-dC | [1]; PANC-1 cultured in the presence of 1 μM 5Aza-dC | [2]; HPAC cultured in the presence of 0.5 μM 5Aza-dC | [2]; HPAC cultured in the presence of 1 μM 5Aza-dC

Reference: patent publication US20070135366A1, “Method for assessing cancerous state” (SUMITOMO CHEMICAL COMPANY, LIMITED., priority 2003, published 2007)
